# Test results as given in patent publication US20240016773A1, “COMPOSITIONS AND METHODS FOR DIAGNOSIS AND TREATMENT OF CONDITIONS RELATED TO AGING” (EPITRACKER, INC., priority 2018, published 2024).
# Key:
# [1] = tested on: BT system: peripheral blood mononuclear cells, B cells (α-IgM, TCR ligands); test: BioMAP Diversity PLUS, BT system; type: cell-based, human
# From the text: (§1) The Diversity PLUS panel allows test agent characterization in an unbiased way across a broad set of systems modeling various human disease states. These systems are designed to model complex human tissue and disease biology of the vasculature, skin, lung, and inflammatory tissues. Quantitative measurements of 148 biomarker activities across this broad panel, along with comparative analysis of biological activities from known bioactive agents, were used to predict and compare the efficacy and function of each selected compound at four concentrations (740 nm and 2.2, 6.7 and 20 μM).
# (§2) BioMAP systems are constructed with one or more primary cell types from healthy human donors, with stimuli (such as cytokines or growth factors) added to capture relevant signaling networks that naturally occur in human tissue or pathological conditions. Vascular biology is modeled in both a Th1 (3C system) and a Th2 (4H system) inflammatory environment, as well as in a Th1 inflammatory state specific to arterial smooth muscle cells (CASM3C system). Additional systems recapitulate aspects of the systemic immune response including monocyte-driven Th1 inflammation (LPS system) or T cell stimulation (SAg system), chronic Th1 inflammation driven by macrophage activation (lMphg system) and the T cell-dependent activation of B cells that occurs in germinal centers (BT system). The BE3C system (Th1) and the BF4T system (Th2) represent airway inflammation of the lung, while the MyoF system models myofibroblast-lung tissue remodeling. Lastly, skin biology is addressed in the KF3CT system modeling Th1 cutaneous inflammation and the HDF3CGF system modeling wound healing.
# (§3) Each test agent generates a signature BioMAP profile that is created from the changes in protein biomarker readouts within individual system environments. Biomarker readouts (7-17 per system) are selected for therapeutic and biological relevance, are predictive for disease outcomes or specific drug effects and are validated using agents with known mechanism of action (MoA). Each readout is measured quantitatively by immune-based methods that detect protein (e.g., ELISA) or functional assays that measure proliferation and viability. BioMAP readouts are diverse and include cell surface receptors, cytokines, chemokines, matrix molecules and enzymes. In total, the Diversity PLUS panel contains 148 biomarker readouts that capture biological changes that occur within the physiological context of the particular BioMAP system. Specific BioMAP activities have been correlated to in vivo biology, and multiparameter BioMAP profiles have been used to distinguish compounds based on MoA and target selectivity across diverse physiological systems.
# (§4) Activated BioMAP systems were incubated with each compound for 24 to 72 hours. Protein-based biomarkers from activated cell systems were measured and compared with non-treated control systems.
# [2] = tested on: BF4T system: bronchial epithelial cells, dermal fibroblasts (IL-4, TNF-α); test: BioMAP Diversity PLUS, BF4T system; type: cell-based, human
# From the text: as §1
# (§5) BioMAP systems are constructed with one or more primary cell types from healthy human donors, with stimuli (such as cytokines or growth factors) added to capture relevant signaling networks that naturally occur in human tissue or pathological conditions. Vascular biology is modeled in both a Th1 (3C system) and a Th2 (4H system) inflammatory environment, as well as in a Th1 inflammatory state specific to arterial smooth muscle cells (CASM3C system). […]
# as §3, with “Specific BioMAP activities have been correlated to in vivo biology, and multiparameter BioMAP profiles have been used to distinguish compounds based on MoA and target selectivity across diverse physiological systems.” left out
# as §4
# [3] = tested on: CASM3C system: coronary artery smooth muscle cells (IL-1β, TNFα, IFNγ); test: BioMAP Diversity PLUS, CASM3C system; type: cell-based, human; conditions: 2.2 μM
# From the text: as §1, with “μM). […]” for “μM).”
# (§6) Each test agent generates a signature BioMAP profile that is created from the changes in protein biomarker readouts within individual system environments. Biomarker readouts (7-17 per system) are selected for therapeutic and biological relevance, are predictive for disease outcomes or specific drug effects and are validated using agents with known mechanism of action (MoA). Each readout is measured quantitatively by immune-based methods that detect protein (e.g., ELISA) or functional assays that measure proliferation and viability. BioMAP readouts are diverse and include cell surface receptors, cytokines, chemokines, matrix molecules and enzymes. […]
# [4] = tested on: HDF3CGF system: dermal fibroblasts (IFNγ, TNFα, IL-1β, EGF, bFGF, PDGF-BB); test: BioMAP Diversity PLUS, HDF3CGF system; type: cell-based, human; conditions: HDF3CGF
# From the text: as §1, §2, §3, §4
# [5] = tested on: twelve different human primary cell systems mimicking various disease states; test: BioMAP Diversity PLUS panel, twelve human primary cell systems (summary by disease); type: cell-based; design: key: x: Significantly reduced cell-based biomarkers relevant to specific diseases and conditions
# From the text: As a proof of concept, 14 compounds were selected from our compound library based on predicted efficacy in lowering inflammation in dolphins. Pure synthetic forms of these compounds were screened for cell-based activities (relevant to multiple aging-associated diseases and diseases that may impact longevity) using twelve different human primary cell systems mimicking various disease states (TABLE 4—description of primary human cell systems used to screen selected compounds in library).
# as §1, §2, §3, §4
# [6] = tested on: LPS system: venular endothelial cells, peripheral blood mononuclear cells (TLR4 ligand); test: BioMAP Diversity PLUS, LPS system; type: cell-based, human
# From the text: as §1, §2
# as §6, with “enzymes. In total, the Diversity PLUS panel contains 148 biomarker readouts that capture biological changes that occur within the physiological context of the particular BioMAP system.” for “enzymes.”
# as §4
# [7] = tested on: SAg system: venular endothelial cells, peripheral blood mononuclear cells (TCR ligands); test: BioMAP Diversity PLUS, SAg system; type: cell-based, human
# From the text: as §1, §2, §3, §4
# [8] = tested on: BE3C system: bronchial epithelial cells (IL-1β, IFNγ, TNFα); test: BioMAP Diversity PLUS, BE3C system; type: cell-based, human
# From the text: as §1, §5
# as §6, with “enzymes. In total, the Diversity PLUS panel contains 148 biomarker readouts that capture biological changes that occur within the physiological context of the particular BioMAP system.” for “enzymes.”
# as §4
# [9] = tested on: /Mphg system: macrophages, venular endothelial cells (TLR2 ligand); test: BioMAP Diversity PLUS, /Mphg system; type: cell-based, human; conditions: 20.0 μM
# From the text: as §1, with “μM). […]” for “μM).”
# as §6
compound,measurement,setting,value
CCCCCCC=CCCCCCCCCC(=O)O [10-heptadecanoate],Significant log10 reduction vs nontreated controls: Secreted interleukin 2 (IL-2),[1]; 6.7 μM,−0.11 log10
same,Significant log10 reduction vs nontreated controls: Eotaxin 3 (CCL26),[2]; 2.2 μM,−0.10 log10
same,Significant log10 reduction vs nontreated controls: Eotaxin 3 (CCL26),[2]; 6.7 μM,−0.13 log10
same,Significant log10 reduction vs nontreated controls: Eotaxin 3 (CCL26),[2]; 20.0 μM,−0.31 log10
same,Significant log10 reduction vs nontreated controls: Serum amyloid A,[3],−0.13 log10
same,Significant log10 reduction vs nontreated controls: Macrophage colony-stimulating factor (M-CSF),[4]; 6.7 μM,−0.1 log10
same,Significant log10 reduction vs nontreated controls: Vascular cell adhesion molecule 1 (VCAM-1),[4]; 6.7 μM,−0.17 log10
same,Significantly reduced cell-based biomarkers relevant to: Allergy,[5]; Table 6,x
same,Significantly reduced cell-based biomarkers relevant to: Asthma,[5]; Table 6,x
same,Significantly reduced cell-based biomarkers relevant to: Autoimmunity,[5]; Table 6,x
same,Significantly reduced cell-based biomarkers relevant to: COPD,[5]; Table 6,x
same,Significantly reduced cell-based biomarkers relevant to: Hematological oncology,[5]; Table 6,x
same,Significantly reduced cell-based biomarkers relevant to: Pulmonary fibrosis,[5]; Table 6,x
same,Significantly reduced cell-based biomarkers relevant to: SLE,[5]; Table 6,x
same,Significantly reduced cell-based biomarkers relevant to: T-cell dependent B cell proliferation,[5]; Table 6,x
same,Significantly reduced cell-based biomarkers relevant to: Th2 type inflammation,[5]; Table 6,x
same,Significantly reduced cell-based biomarkers relevant to: Chronic inflammation,[5]; Table 7,x
same,Significantly reduced cell-based biomarkers relevant to: Psoriasis,[5]; Table 7,x
same,Significantly reduced cell-based biomarkers relevant to: Restenosis,[5]; Table 7,x
same,Significantly reduced cell-based biomarkers relevant to: Rheumatoid arthritis,[5]; Table 7,x
same,Significantly reduced cell-based biomarkers relevant to: Thl type inflammation,[5]; Table 7,x
same,Significantly reduced cell-based biomarkers relevant to: Fibrosis,[5]; Table 8,x
same,Significantly reduced cell-based biomarkers relevant to: Stromal biology in tumors,[5]; Table 8,x
same,Significantly reduced cell-based biomarkers relevant to: Vascular inflammation,[5]; Table 8,x
C=CCCCCCCCCC(=O)O [10-undecanoate],Significant log10 reduction vs nontreated controls: Secreted interleukin 17A (IL-17A),[1]; 2.2 μM,−0.25 log10
same,Significant log10 reduction vs nontreated controls: Secreted interleukin 17A (IL-17A),[1]; 20.0 μM,−0.20 log10
same,Significant log10 reduction vs nontreated controls: Tumor necrosis factor alpha (TNFα),[1]; 20.0 μM,−0.12 log10
same,Significant log10 reduction vs nontreated controls: Macrophage colony-stimulating factor (M-CSF),[4]; 0.7 μM,−0.11 log10
same,Significant log10 reduction vs nontreated controls: Macrophage colony-stimulating factor (M-CSF),[4]; 2.2 μM,−0.07 log10
same,Significant log10 reduction vs nontreated controls: Secreted prostaglandin E2 (PGE2),[6]; 0.7 μM,−0.11 log10
same,Significant log10 reduction vs nontreated controls: Secreted prostaglandin E2 (PGE2),[6]; 2.2 μM,−0.08 log10
same,Significant log10 reduction vs nontreated controls: Secreted prostaglandin E2 (PGE2),[6]; 6.7 μM,−0.20 log10
same,Significant log10 reduction vs nontreated controls: CD40,[6]; 20.0 μM,−0.11 log10
same,Significant log10 reduction vs nontreated controls: CD40,[7]; 0.7 μM,−0.07 log10
same,Significant log10 reduction vs nontreated controls: CD40,[7]; 2.2 μM,−0.14 log10
same,Significant log10 reduction vs nontreated controls: CD40,[7]; 6.7 μM,−0.09 log10
same,Significant log10 reduction vs nontreated controls: CD40,[7]; 20.0 μM,−0.11 log10
same,Significant log10 reduction vs nontreated controls: Tissue plasminogen activator (tPA),[8]; 2.2 μM,−0.08 log10
same,Significant log10 reduction vs nontreated controls: Tissue plasminogen activator (tPA),[8]; 6.7 μM,−0.11 log10
same,Significant log10 reduction vs nontreated controls: Tissue plasminogen activator (tPA),[8]; 20.0 μM,−0.12 log10
same,Significant log10 reduction vs nontreated controls: Secreted interleukin 10 (IL-10),[9],−0.21 log10
same,Significantly reduced cell-based biomarkers relevant to: Allergy,[5]; Table 6,x
same,Significantly reduced cell-based biomarkers relevant to: Asthma,[5]; Table 6,x
same,Significantly reduced cell-based biomarkers relevant to: Autoimmunity,[5]; Table 6,x
same,Significantly reduced cell-based biomarkers relevant to: Hematological oncology,[5]; Table 6,x
same,Significantly reduced cell-based biomarkers relevant to: SLE,[5]; Table 6,x
same,Significantly reduced cell-based biomarkers relevant to: T-cell dependent B cell proliferation,[5]; Table 6,x
same,Significantly reduced cell-based biomarkers relevant to: Atherosclerosis,[5]; Table 7,x
same,Significantly reduced cell-based biomarkers relevant to: Chronic inflammation,[5]; Table 7,x
same,Significantly reduced cell-based biomarkers relevant to: Metabolic diseases,[5]; Table 7,x
same,Significantly reduced cell-based biomarkers relevant to: Organ transplantation,[5]; Table 7,x
same,Significantly reduced cell-based biomarkers relevant to: Psoriasis,[5]; Table 7,x
same,Significantly reduced cell-based biomarkers relevant to: Restenosis,[5]; Table 7,x
same,Significantly reduced cell-based biomarkers relevant to: Rheumatoid arthritis,[5]; Table 7,x
same,Significantly reduced cell-based biomarkers relevant to: Thl type inflammation,[5]; Table 7,x
same,Significantly reduced cell-based biomarkers relevant to: Crohn's disease,[5]; Table 8,x
same,Significantly reduced cell-based biomarkers relevant to: Fibrosis,[5]; Table 8,x
same,Significantly reduced cell-based biomarkers relevant to: Hematological oncology,[5]; Table 8,x
same,Significantly reduced cell-based biomarkers relevant to: Pulmonary responses to respiratory infections,[5]; Table 8,x
same,Significantly reduced cell-based biomarkers relevant to: Sarcoidosis,[5]; Table 8,x
same,Significantly reduced cell-based biomarkers relevant to: Stromal biology in tumors,[5]; Table 8,x
